# Source: patent publication US10463644B2, “Uses of sesquiterpene lactone compounds and their derivatives in drugs preparation” (ACCENDATECH, priority 2013, dated 2019)
# Where two headings read alike, the source gives them in different places.
# Legend:
# [1] = tested on: TNF-α secreted by synoviocyte; test: Content of TNF-α in culture supernatant of synoviocyte of RA model rats given test compound; type: in vivo; settings: rat RA model, dose 30 mg/kg.2d; normal control 0.38 ± 0.027, NaCl 0.74 ± 0.098
# Outline: (§1)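 Rat RA model: compounds given at 30 mg/kg.2d, with normal control and NaCl groups. Synoviocyte culture supernatants assayed for secreted TNF-α and PGE2 by one referenced method, IL-1β by another.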
# [2] = tested on: IL-1β secreted by synoviocyte; test: Content of IL-1β in culture supernatant of synoviocyte of RA model rats given test compound; type: in vivo; settings: rat RA model, dose 30 mg/kg.2d; normal control 0.16 ± 0.034, NaCl 0.49 ± 0.136
# Outline: as §1
# [3] = tested on: PGE2 secreted by synoviocyte; test: Content of PGE2 in culture supernatant of synoviocyte of RA model rats given test compound; type: in vivo; settings: rat RA model, dose 30 mg/kg.2d; normal control 8.34 ± 1.29, NaCl 32.44 ± 10.32
# Outline: as §1
# cancer stem cells = test: Survival rate of cancer stem cells after test compound is added (flow cytometry, Annexin V-FITC/PI, clinical specimen); type: cell-based, patient; settings: Homo sapiens, 18 h
# Source text: (§2) Take fresh or cryopreserved clinical specimen (acute myelogenous leukemia (AML, marker is CD34^+/CD38^+), chronic myelogenous leukemia (CML, Ph+/CD34+/CXCR4+), chronic lymphocytic leukemia (CLL,CD133+/CD19−/CD38−), skin cancer (CD34+), breast cancer (CD44+/CD24−/ESA+), ovarian cancer (CD44+/CD117+), brain tumor (CD133+) prostate cancer (CD44+/CD24−), head-neck squamous cell carcinoma (CD44+), laryngeal cancer (CD133+), pancreatic cancer (ESA+/CD44+/CD24+), retinoblastoma (ABCG2/ALDH1), Children hepatoblastoma (CD34+/THY1+/c-kit+), liver cancer (CD133+), malignant melanoma (CD133+), colorectal cancer (EpCAM^high/CD44+), colon adenocarcinoma (CD44^high), glioma (ABCG-2/BCRP1), gastrointestinal tumor (ABCG-2/BCRP1), nasopharynx cancer (ABCG2), brain glioma (Dlk-1/Pref-1), gastric cancer (CD45+), lung adenocarcinoma (Sca-1/CD45-/Pecam-/CD34+), lung cancer (CD133+CD34+CD44+)) of patient. Take the acute myelogenous leukemia as the example, conduct density gradient centrifugation with Ficoll and take out the middle mononuclear cells, re-suspend it with serum-free IMDM after centrifuged. Adjust the concentration of cells into 1×10^6/mL and lay 24-well plate with 1 mL in each well, and then treat 18 hours with the compound to select with corresponding concentration. Collect the cells and centrifuge them at 1500 rps for 8 minutes, re-suspend the precipitation with […], mark the antibodies related to leukemia stem cell, avoid light to incubate 30 minutes at room temperature and then centrifuge it at 1500 rps, then wash away the unbound antibody CD34^+CD38^+. Re-suspend it with 100 μl 1× Binding Buffer and add respectively 5 μl Annexin V-FITC and PI, then avoid light to incubate 15 minutes before add 200 μl 1× Binding Buffer, then use flow cytometry to examine the marked apoptosis within one hour.
# cancer cells = test: Survival rate of cancer cells after test compound is added (flow cytometry, Annexin V-FITC/PI, clinical specimen); type: cell-based, patient; settings: Homo sapiens, 18 h, read-out: Survival rate (%) All cells (Stem cells and ordinary cells)
# Source text: as §2
# [4] = Head and neck squamous cell carcinomas
structure (smiles),measurement,setting,value
[2H][C@@]1(CN(C)C)C(=O)O[C@@H]2[C@@H]3[C@@H](CCC34CC4)C3(CC[C@H]21)CC3 [Compound 46],Content of TNF-α in culture supernatant of synoviocyte (x ± s),[1],0.56 ± 0.034 ng/mL
same,Content of IL-1β in culture supernatant of synoviocyte (x ± s),[2],0.36 ± 0.067 ng/mL
same,Content of PGE2 in culture supernatant of synoviocyte (x ± s),[3],24.74 ± 2.64 ng/mL
same,viability at 10 µM,cancer stem cells; AML,82%
same,viability at 20 µM,cancer stem cells; AML,74%
same,viability at 10 µM,cancer stem cells; Brain glioma,88%
same,viability at 20 µM,cancer stem cells; Brain glioma,81%
same,viability at 10 µM,cancer stem cells; Brain tumor,88%
same,viability at 20 µM,cancer stem cells; Brain tumor,81%
same,viability at 10 µM,cancer stem cells; Breast cancer,82%
same,viability at 20 µM,cancer stem cells; Breast cancer,76%
same,viability at 10 µM,cancer stem cells; CLL,82%
same,viability at 20 µM,cancer stem cells; CLL,76%
same,viability at 10 µM,cancer stem cells; CML,85%
same,viability at 20 µM,cancer stem cells; CML,79%
same,viability at 10 µM,cancer stem cells; Children hepatoblastoma,84%
same,viability at 20 µM,cancer stem cells; Children hepatoblastoma,78%
same,viability at 10 µM,cancer stem cells; Colon adenocarcinoma,84%
same,viability at 20 µM,cancer stem cells; Colon adenocarcinoma,74%
same,viability at 10 µM,cancer stem cells; Colorectal cancer,86%
same,viability at 20 µM,cancer stem cells; Colorectal cancer,78%
same,viability at 10 µM,cancer stem cells; Gastric cancer,87%
same,viability at 20 µM,cancer stem cells; Gastric cancer,76%
same,viability at 10 µM,cancer stem cells; Gastrointestinal tumor,82%
same,viability at 20 µM,cancer stem cells; Gastrointestinal tumor,76%
same,viability at 10 µM,cancer stem cells; Glioma,87%
same,viability at 20 µM,cancer stem cells; Glioma,75%
same,viability at 10 µM,cancer stem cells; [4],84%
same,viability at 20 µM,cancer stem cells; [4],78%
same,viability at 10 µM,cancer stem cells; Laryngeal cancer,81%
same,viability at 20 µM,cancer stem cells; Laryngeal cancer,75%
same,viability at 10 µM,cancer stem cells; Liver cancer,81%
same,viability at 20 µM,cancer stem cells; Liver cancer,75%
same,viability at 10 µM,cancer stem cells; Lung adenocarcinoma,85%
same,viability at 20 µM,cancer stem cells; Lung adenocarcinoma,79%
same,viability at 10 µM,cancer stem cells; Lung cancer,82%
same,viability at 20 µM,cancer stem cells; Lung cancer,76%
same,viability at 10 µM,cancer stem cells; Malignant melanoma,85%
same,viability at 20 µM,cancer stem cells; Malignant melanoma,77%
same,viability at 10 µM,cancer stem cells; Nasopharynx cancer,79%
same,viability at 20 µM,cancer stem cells; Nasopharynx cancer,72%
same,viability at 10 µM,cancer stem cells; Ovarian cancer,79%
same,viability at 20 µM,cancer stem cells; Ovarian cancer,72%
same,viability at 10 µM,cancer stem cells; Pancreatic cancer,85%
same,viability at 20 µM,cancer stem cells; Pancreatic cancer,79%
same,viability at 10 µM,cancer stem cells; Prostate cancer,87%
same,viability at 20 µM,cancer stem cells; Prostate cancer,76%
same,viability at 10 µM,cancer stem cells; Retinoblastoma,82%
same,viability at 20 µM,cancer stem cells; Retinoblastoma,73%
same,viability at 10 µM,cancer stem cells; Skin cancer,85%
same,viability at 20 µM,cancer stem cells; Skin cancer,77%
same,viability at 10 µM,cancer cells; AML,88%
same,viability at 20 µM,cancer cells; AML,85%
same,viability at 10 µM,cancer cells; Brain glioma,91%
same,viability at 20 µM,cancer cells; Brain glioma,89%
same,viability at 10 µM,cancer cells; Brain tumor,91%
same,viability at 20 µM,cancer cells; Brain tumor,89%
same,viability at 10 µM,cancer cells; Breast cancer,89%
same,viability at 20 µM,cancer cells; Breast cancer,86%
same,viability at 10 µM,cancer cells; CLL,88%
same,viability at 20 µM,cancer cells; CLL,89%
same,viability at 10 µM,cancer cells; CML,93%
same,viability at 20 µM,cancer cells; CML,86%
same,viability at 10 µM,cancer cells; Children hepatoblastoma,91%
same,viability at 20 µM,cancer cells; Children hepatoblastoma,88%
same,viability at 10 µM,cancer cells; Colon adenocarcinoma,89%
same,viability at 20 µM,cancer cells; Colon adenocarcinoma,86%
same,viability at 10 µM,cancer cells; Colorectal cancer,93%
same,viability at 20 µM,cancer cells; Colorectal cancer,92%
same,viability at 10 µM,cancer cells; Gastric cancer,94%
same,viability at 20 µM,cancer cells; Gastric cancer,87%
same,viability at 10 µM,cancer cells; Gastrointestinal tumor,89%
same,viability at 20 µM,cancer cells; Gastrointestinal tumor,86%
same,viability at 10 µM,cancer cells; Glioma,91%
same,viability at 20 µM,cancer cells; Glioma,84%
same,viability at 10 µM,cancer cells; [4],91%
same,viability at 20 µM,cancer cells; [4],88%
same,viability at 10 µM,cancer cells; Laryngeal cancer,87%
same,viability at 20 µM,cancer cells; Laryngeal cancer,83%
same,viability at 10 µM,cancer cells; Liver cancer,87%
same,viability at 20 µM,cancer cells; Liver cancer,83%
same,viability at 10 µM,cancer cells; Lung adenocarcinoma,93%
same,viability at 20 µM,cancer cells; Lung adenocarcinoma,86%
same,viability at 10 µM,cancer cells; Lung cancer,88%
same,viability at 20 µM,cancer cells; Lung cancer,89%
same,viability at 10 µM,cancer cells; Malignant melanoma,92%
same,viability at 20 µM,cancer cells; Malignant melanoma,89%
same,viability at 10 µM,cancer cells; Nasopharynx cancer,88%
same,viability at 20 µM,cancer cells; Nasopharynx cancer,81%
same,viability at 10 µM,cancer cells; Ovarian cancer,88%
same,viability at 20 µM,cancer cells; Ovarian cancer,81%
same,viability at 10 µM,cancer cells; Pancreatic cancer,88%
same,viability at 20 µM,cancer cells; Pancreatic cancer,85%
same,viability at 10 µM,cancer cells; Prostate cancer,94%
same,viability at 20 µM,cancer cells; Prostate cancer,87%
same,viability at 10 µM,cancer cells; Retinoblastoma,91%
same,viability at 20 µM,cancer cells; Retinoblastoma,87%
same,viability at 10 µM,cancer cells; Skin cancer,92%
same,viability at 20 µM,cancer cells; Skin cancer,89%
